The values below come from ChEMBL document CHEMBL1124165, “1-(2,3-Anhydro-beta-D-lyxofuranosyl)cytosine derivatives as potential inhibitors of the human immunodeficiency virus” (J Med Chem, 1988).

SMILES strings stand for the structures.

For the first test, the system named is ATH-8 cell line. Kind of test: Tested in vitro for concentration with significant protective effect on ATH8 cells exposed to HIV. It is filed as functional, cell-based. As to conditions: Homo sapiens.
`Nc1ccn([C@@H]2O[C@H](CO)[C@H]3OC23)c(=O)n1` (some centres undefined): the Concentration worked out at 5 µM.

The next test concerns ATH-8 cell line. Description: Tested in vitro for concentration with significant protective effect on ATH8 cells exposed to HIV; No significant effect at concentrations 100 uM. The class given is functional, cell-based. As to conditions: Homo sapiens.
As for `Cc1cn([C@@H]2O[C@H](CO)[C@H]3OC23)c(=O)[nH]c1=O` (some centres undefined), the Concentration entry is “No significant effect at concentrations 100 uM”.

For the compound `COc1ccn([C@@H]2O[C@H](CO)[C@H]3OC23)c(=O)n1` (some centres undefined), the Concentration result is “No significant effect at concentrations 100 uM”.

With `O=c1[nH]c(=O)n([C@@H]2O[C@H](CO)[C@H]3OC23)cc1Br` (some centres undefined), the Concentration result was “No significant effect at concentrations 100 uM”.

As to `Nc1ccn([C@@H]2O[C@H](CO)C[C@@H]2O)c(=O)n1`, the Concentration entry was “No significant effect at concentrations 100 uM”.

As for `[N-]=[N+]=N[C@@H]1C(O)[C@H](n2ccc(N)nc2=O)O[C@@H]1CO` (some centres undefined), the Concentration result is “No significant effect at concentrations 100 uM”.

As to `CNc1ccn([C@@H]2O[C@H](CO)[C@H]3OC23)c(=O)n1` (some centres undefined), the Concentration result was “No significant effect at concentrations 100 uM”.

`C[C@H]1[C@H](O)[C@H](n2ccc(=O)[nH]c2=O)O[C@@H]1CO`: the Concentration result is “No significant effect at concentrations 100 uM”.

Turning to `Cc1cn([C@@H]2O[C@H](CO)[C@H](N=[N+]=[N-])C2O)c(=O)[nH]c1=O` (some centres undefined), the Concentration result is “No significant effect at concentrations 100 uM”.

Regarding `O=c1ccn([C@@H]2O[C@H](CO)[C@H]3OC23)c(=O)[nH]1` (some centres undefined), the Concentration result was “No significant effect at concentrations 100 uM”.

As to `Cc1cn([C@@H]2O[C@H](CO)C[C@@H]2O)c(=O)[nH]c1=O`, the Concentration entry was “No significant effect at concentrations 100 uM”.

Turning to `[N-]=[N+]=N[C@@H]1C(O)[C@H](n2ccc(=O)[nH]c2=O)O[C@@H]1CO` (some centres undefined), the Concentration result is “No significant effect at concentrations 100 uM”.

Take `O=c1nc(NO)ccn1[C@@H]1O[C@H](CO)[C@H]2OC12` (some centres undefined): the Concentration result is “No significant effect at concentrations 100 uM”.

The species named for the next test is Homo sapiens. Description: Tested in vitro for concentration with significant protective effect on CD4+ cells exposed to HIV. The class given is functional.
Conditions: not given
Take `Nc1ccn([C@@H]2O[C@H](CO)[C@H]3OC23)c(=O)n1` (some centres undefined): the Concentration was found to be 5 µM.
